Experimental data taken from US10058540B2, “2-amino-5,5-difluoro-6-(fluoromethyl)-6-phenyl-3,4,5,6-tetrahydropyridines as BACE1 inhibitors” (H. Lundbeck A/S, priority 2014, dated 2018).

Columns and labels:
P-gp (MDR1) = assay: MDCK-MDR1 assay (permeability / Pgp efflux); assay type: in vitro ADME; conditions: dog, Papp BA/Papp AB, Pgp substrate when ≥2
Protocol: The permeability of the test compounds was assessed in MDCK-MDR1 cells that were cultured to confluency (4-6 days) in a 96 transwell plate. Test compounds were diluted with the transport buffer (HBSS+1% BSA) to a concentration of 0.5 μM and applied to the apical or basolateral side of the cell monolayer. Permeation of the test compounds from A to B direction or B to A direction was determined in triplicate over a 60-minute incubation time at 37° C. and 5% CO2 with a relative humidity of 95%. Test compounds were quantified by LC-MS/MS analysis based on the peaks area ratios of analyte/IS in both the receiver and donor wells of the transwell plate.
The apparent permeability coefficient Papp (cm/s) was calculated using the equation: Papp=(dCr/dt)×Vr/(A×C0) Where dCr/dt is the cumulative concentration of compound in the receiver chamber as a function of time (μM/s); Vr is the solution volume in the receiver chamber (0.05 mL on the apical side; 0.25 mL on the basolateral side); A is the surface area for the transport, i.e. 0.0804 cm^2 for the area of the monolayer; C0 is the initial concentration in the donor chamber (μM).
Compounds are classified Pgp substrates when efflux ratio (Papp BA/Papp AB) is ≥2.

BACE1 [1] = target: T1, BACE1 (Homo sapiens (Human), UniProt P56817); assay: BACE1 binding assay (SPA-based, radioligand); conditions: pH 4.5, Ki=IC50/(1+L/Kd)
Protocol: The binding assay was performed as SPA-based assay using a biotinylated form of human BACE1 recombinantly expressed and subsequently purified from Freestyle HEK293 cells. The binding assay was run in a 50 mM sodium acetate buffer, pH 4.5 containing 50 mM NaCl and 0.03% Tween-20 in white clear bottom 384 plates (Corning #3653). 10 nM (final concentration) radioligand ([^3H]-N-((1S,2R)-1-benzyl-3-cyclopropylamino-2-hydroxy-propyl)-5-(methanesulfonyl-methyl-amino)-N-((R)-1-phenyl-ethyl)-isophthalamide) (TRQ11569 purchased from GE Healthcare) was mixed with test compound at a given concentration, 6 nM (final concentration) human BACE1 and 25 μg Streptavidin coated PVT core SPA beads (RPNQ0007, GE Healthcare Life Sciences) in a total volume of 40 μl. Several concentrations of each test compound were tested in the assay for IC50 determination. The plates were incubated for one hour at room temperature and counted in a Wallac Trilux counter. Total and non-specific binding were determined using buffer and 1 μM (final concentration) of the high affinity BACE1 reference inhibitor (S)-6-[3-chloro-5-(5-prop-1-ynyl-pyridin-3-yl)-thiophen-2-yl]-2-imino-3,6-dimethyl-tetrahydro-pyrimidin-4-one, respectively. For each test compound, a IC50 value (the concentration mediating 50% inhibition of the specific binding of the radioligand) was determined from concentration-response curve and used to calculate the Ki from the equation Ki=IC50/(1+L/Kd), where L and Kd are the final concentration of the radioligand used in the assay and the dissociation constant of the radioligand, respectively. The Kd of the radioligand was determined from saturation binding experiments.

BACE1 [2] = target: T1, BACE1; assay: BACE1 efficacy assay (FRET-based, commercial BACE1 kit); assay type: biochemical; conditions: 10 μM test compound
Protocol: The efficacy assay was performed as a FRET-based assay using a commercially available BACE1 kit (Life Technologies, P2985). 2 μl test compound at 10 μM (final concentration) and 15 μl BACE1 enzyme from the kit (final concentration 3 nM) were preincubated for 15 minutes at room temperature before addition of 15 μl of substrate from the kit (250 nM final concentration) and incubated for additional 90 minutes at room temperature. The assay plate was subsequently read in a Pherastar (Ex540/Em590). The enzyme activity observed in presence of test compound were normalized to the enzyme activity observed in presence of buffer and 10 μM (final concentration) of the high affinity BACE1 reference inhibitor (S)-6-[3-Chloro-5-(5-prop-1-ynyl-pyridin-3-yl)-thiophen-2-yl]-2-imino-3,6-dimethyl-tetra-hydropyrimidin-4-one, respectively. The efficacy of the test compounds was evaluated at 10 μM (final concentration) and defined as the percent inhibition of the enzyme activity using the equation % inhibition=100%−normalized enzyme activity in percent.

T1 sequence (P56817 46-501): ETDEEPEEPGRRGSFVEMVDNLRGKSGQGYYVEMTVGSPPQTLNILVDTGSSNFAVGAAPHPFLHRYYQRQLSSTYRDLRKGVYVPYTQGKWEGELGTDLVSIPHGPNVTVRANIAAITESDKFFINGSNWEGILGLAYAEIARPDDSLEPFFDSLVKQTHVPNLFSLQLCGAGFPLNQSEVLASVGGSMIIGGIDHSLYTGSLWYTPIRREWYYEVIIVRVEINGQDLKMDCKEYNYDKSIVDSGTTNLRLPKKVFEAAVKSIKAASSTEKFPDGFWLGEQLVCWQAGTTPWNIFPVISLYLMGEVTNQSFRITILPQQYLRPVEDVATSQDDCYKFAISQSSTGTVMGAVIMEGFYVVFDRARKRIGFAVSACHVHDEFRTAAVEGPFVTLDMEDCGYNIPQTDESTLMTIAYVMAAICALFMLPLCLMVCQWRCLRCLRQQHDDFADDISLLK

efflux ratio at 60 min, 0.5 μM (P-gp (MDR1))	Ki (BACE1 [1])	inhibition at 10 µM (BACE1 [2])	Compound
1.75	5.7 nM	104%	NC1=N[C@](CF)(c2cc(NC(=O)c3ccc(Cl)cn3)ccc2F)C(F)(F)CC1 [Compound 1, (S)-N-(3-(6-amino-3,3-difluoro-2-(fluoromethyl)-2,3,4,5-tetrahydropyridin-2-yl)-4-fluorophenyl)-5-chloropicolinamide]
2.6	22 nM	104%	NC1=N[C@](CF)(c2cc(NC(=O)c3ccc(F)cn3)ccc2F)C(F)(F)CC1 [Compound 2, (S)-N-(3-(6-amino-3,3-difluoro-2-(fluoromethyl)-2,3,4,5-tetrahydropyridin-2-yl)-4-fluoro-phenyl)-5-fluoropicolinamide]
2.84	13 nM	104%	COc1cnc(C(=O)Nc2ccc(F)c([C@@]3(CF)N=C(N)CCC3(F)F)c2)cn1 [Compound 3, (S)-N-(3-(6-amino-3,3-difluoro-2-(fluoromethyl)-2,3,4,5-tetrahydropyridin-2-yl)-4-fluoro-phenyl)-5-methoxypyrazine-2-carboxamide]
13.8	25 nM	104%	NC1=N[C@](CF)(c2cc(NC(=O)c3ccn(C(F)F)n3)ccc2F)C(F)(F)CC1 [Compound 4, (S)-N-(3-(6-amino-3,3-difluoro-2-(fluoromethyl)-2,3,4,5-tetrahydropyridin-2-yl)-4-fluorophenyl)-1-(difluoromethyl)-1H-pyrazole-3-carboxamide]
7.31	15 nM	102%	NC1=N[C@](CF)(c2cc(NC(=O)c3coc(C(F)F)n3)ccc2F)C(F)(F)CC1 [Compound 5, (S)-N-(3-(6-amino-3,3-difluoro-2-(fluoromethyl)-2,3,4,5-tetrahydropyridin-2-yl)-4-fluoro-phenyl)-2-(difluoromethyl)oxazole-4-carboxamide]
2.07	20 nM	103%	N#Cc1ccc(C(=O)Nc2ccc(F)c([C@@]3(CF)N=C(N)CCC3(F)F)c2)nc1 [Compound 6, (S)-N-(3-(6-amino-3,3-difluoro-2-(fluoromethyl)-2,3,4,5-tetrahydropyridin-2-yl)-4-fluoro-phenyl)-5-cyanopicolinamide]
4.59	32 nM	96%	Cc1nc(C(=O)Nc2ccc(F)c([C@@]3(CF)N=C(N)CCC3(F)F)c2)co1 [Compound 7, (S)-N-(3-(6-amino-3,3-difluoro-2-(fluoromethyl)-2,3,4,5-tetrahydropyridin-2-yl)-4-fluoro-phenyl)-2-methyloxazole-4-carboxamide]
23.4	29 nM		COc1cnc(C(=O)Nc2ccc(F)c([C@@]3(CF)N=C(N)CCC3(F)F)c2)nc1 [Compound 8, (S)-N-(3-(6-amino-3,3-difluoro-2-(fluoromethyl)-2,3,4,5-tetrahydropyridin-2-yl)-4-fluoro-phenyl)-5-methoxypyrimidine-2-carboxamide]
1.76	30 nM	103%	NC1=N[C@](CF)(c2cc(NC(=O)c3cnc(C(F)F)cn3)ccc2F)C(F)(F)CC1 [Compound 9, (S)-N-(3-(6-amino-3,3-difluoro-2-(fluoromethyl)-2,3,4,5-tetrahydropyridin-2-yl)-4-fluoro-phenyl)-5-(difluoromethyl)pyrazine-2-carboxamide]
3.57	55 nM	102%	Cc1nc(C(=O)Nc2cc(F)c(F)c([C@@]3(CF)N=C(N)CCC3(F)F)c2)co1 [Compound 10, (S)-N-(3-(6-amino-3,3-difluoro-2-(fluoromethyl)-2,3,4,5-tetrahydropyridin-2-yl)-4,5-difluorophenyl)-2-methyloxazole-4-carboxamide]
1.11	84 nM	101%	NC1=N[C@](CF)(c2cc(NC(=O)c3ccc(F)cn3)cc(F)c2F)C(F)(F)CC1 [Compound 12, (S)-N-(3-(6-amino-3,3-difluoro-2-(fluoromethyl)-2,3,4,5-tetrahydropyridin-2-yl)-4,5-difluorophenyl)-5-fluoropicolinamide]
1.11	22 nM	103%	NC1=N[C@](CF)(c2cc(NC(=O)c3ccc(Cl)cn3)cc(F)c2F)C(F)(F)CC1 [Compound 13, (S)-N-(3-(6-amino-3,3-difluoro-2-(fluoromethyl)-2,3,4,5-tetrahydropyridin-2-yl)-4,5-difluorophenyl)-5-chloropicolinamide]
1.81	23 nM	103%	N#Cc1ccc(C(=O)Nc2cc(F)c(F)c([C@@]3(CF)N=C(N)CCC3(F)F)c2)nc1 [Compound 14, (S)-N-(3-(6-amino-3,3-difluoro-2-(fluoromethyl)-2,3,4,5-tetrahydropyridin-2-yl)-4,5-difluorophenyl)-5-cyanopicolinamide]
1.1	21 nM	106%	[2H]C([2H])([2H])Oc1ccc(C(=O)Nc2cc(F)c(F)c([C@@]3(CF)N=C(N)CCC3(F)F)c2)nc1 [Compound 16, (S)-N-(3-(6-amino-3,3-difluoro-2-(fluoromethyl)-2,3,4,5-tetrahydropyridin-2-yl)-4,5-difluorophenyl)-5-(methoxy-d3)picolinamide]
2.21	16 nM	111%	Cc1cc(C#N)cnc1C(=O)Nc1cc(F)c(F)c([C@@]2(CF)N=C(N)CCC2(F)F)c1 [Compound 17, (S)-N-(3-(6-amino-3,3-difluoro-2-(fluoromethyl)-2,3,4,5-tetrahydropyridin-2-yl)-4,5-difluorophenyl)-5-cyano-3-methylpicolinamide]
	25 nM	109%	[2H]C([2H])([2H])Oc1ccc(C(=O)Nc2ccc(F)c([C@@]3(CF)N=C(N)CCC3(F)F)c2)nc1 [Compound 18, (S)-N-(3-(6-amino-3,3-difluoro-2-(fluoromethyl)-2,3,4,5-tetrahydropyridin-2-yl)-4-fluorophenyl)-5-(methoxy-d3)picolinamide]
1.59	11 nM		NC1=N[C@](CF)(c2cc(NC(=O)c3ccc(Br)cn3)ccc2F)C(F)(F)CC1 [Compound 19, (S)-N-(3-(6-amino-3,3-difluoro-2-(fluoromethyl)-2,3,4,5-tetrahydropyridin-2-yl)-4-fluorophenyl)-5-bromopicolinamide]
